Several values for one entry are separate records, joined by “and”; a condition that tells them apart may be missing. Equal entries are not always repeated.
Assays:
Test in all cases: PDSP GPCR panel primary binding assays at 10 μM
[1] = molecular target: T1, cloned human or rodent CNS receptors, channels, and transporters (PDSP panel) (Homo sapiens, UniProt P35372); conditions: MOR, primary assay
T1 construct: expressed in transfected cells
Method in brief: (§1)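 Radioligand displacement at cloned human or rodent CNS targets: 46–47 primary binding assays run in quadruplicate at 10 μM. Targets where the compound displaced an average of >50% of radiolabeled standard ligand went to secondary binding in 11-point dose-response, in triplicate; none run for H3, PBR or GABAA.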

[2] = molecular target: T2, cloned human or rodent CNS receptors, channels, and transporters (PDSP panel) (Homo sapiens, UniProt P20309); conditions: M3, primary assay
T2 construct: expressed in transfected cells
Method in brief: as §1

[3] = molecular target: T3, cloned human or rodent CNS receptors, channels, and transporters (PDSP panel) (Homo sapiens, UniProt P28566); conditions: 5-HT1E, primary assay
T3 construct: expressed in transfected cells
Method in brief: as §1

[4] = molecular target: T4, cloned human or rodent CNS receptors, channels, and transporters (PDSP panel) (Homo sapiens, UniProt P14416); conditions: D2, primary assay
T4 construct: expressed in transfected cells
Method in brief: as §1

[5] = molecular target: T5, cloned human or rodent CNS receptors, channels, and transporters (PDSP panel) (Homo sapiens, UniProt Q01959); conditions: DAT, primary assay
T5 construct: expressed in transfected cells
Method in brief: as §1

[6] = tested on: cloned human or rodent CNS receptors, channels, and transporters (PDSP panel); conditions: primary assay; for Mean %: mean inhibition; for Inhibition 1: replicate 1; for Inhibition 2: replicate 2; for Inhibition 3: replicate 3; for Inhibition 4: replicate 4
Method in brief: as §1

[7] = molecular target: T6, cloned human or rodent CNS receptors, channels, and transporters (PDSP panel) (Homo sapiens, UniProt P08912); conditions: M5, primary assay
T6 construct: expressed in transfected cells
T6 sequence (P08912 1-532): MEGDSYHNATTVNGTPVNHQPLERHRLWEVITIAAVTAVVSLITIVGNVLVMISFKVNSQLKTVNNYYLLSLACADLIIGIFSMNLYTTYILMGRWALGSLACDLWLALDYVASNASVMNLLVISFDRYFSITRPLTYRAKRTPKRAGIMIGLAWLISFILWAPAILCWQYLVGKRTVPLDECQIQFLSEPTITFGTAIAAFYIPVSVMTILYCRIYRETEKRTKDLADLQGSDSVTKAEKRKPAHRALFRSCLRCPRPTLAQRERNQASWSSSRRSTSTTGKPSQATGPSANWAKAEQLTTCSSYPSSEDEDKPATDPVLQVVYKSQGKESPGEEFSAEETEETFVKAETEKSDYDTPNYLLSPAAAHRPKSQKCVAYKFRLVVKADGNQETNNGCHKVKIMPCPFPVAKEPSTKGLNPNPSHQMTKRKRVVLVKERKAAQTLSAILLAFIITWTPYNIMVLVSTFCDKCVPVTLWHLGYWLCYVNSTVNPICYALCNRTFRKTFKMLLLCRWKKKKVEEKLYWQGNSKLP
Method in brief: as §1

[8] = molecular target: T7, cloned human or rodent CNS receptors, channels, and transporters (PDSP panel) (Homo sapiens, UniProt P35367); conditions: H1, primary assay
T7 construct: expressed in transfected cells
Method in brief: as §1

T2 sequence (P20309 whole entry): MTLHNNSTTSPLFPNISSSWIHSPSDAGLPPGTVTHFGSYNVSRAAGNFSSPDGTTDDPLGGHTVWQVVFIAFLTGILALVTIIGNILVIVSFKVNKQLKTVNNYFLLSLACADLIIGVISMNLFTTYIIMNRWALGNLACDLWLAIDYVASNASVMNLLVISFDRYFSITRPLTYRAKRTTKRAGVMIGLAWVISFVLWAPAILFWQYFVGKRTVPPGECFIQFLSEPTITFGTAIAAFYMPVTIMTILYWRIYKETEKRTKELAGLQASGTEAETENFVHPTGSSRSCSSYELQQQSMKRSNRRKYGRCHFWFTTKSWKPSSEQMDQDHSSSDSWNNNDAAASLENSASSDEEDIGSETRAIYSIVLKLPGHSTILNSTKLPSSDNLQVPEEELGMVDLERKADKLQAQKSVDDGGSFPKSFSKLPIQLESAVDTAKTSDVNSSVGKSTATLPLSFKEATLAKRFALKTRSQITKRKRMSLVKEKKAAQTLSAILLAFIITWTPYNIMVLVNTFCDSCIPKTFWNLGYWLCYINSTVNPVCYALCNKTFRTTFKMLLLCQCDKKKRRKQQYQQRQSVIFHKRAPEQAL
T3 sequence (P28566 whole entry): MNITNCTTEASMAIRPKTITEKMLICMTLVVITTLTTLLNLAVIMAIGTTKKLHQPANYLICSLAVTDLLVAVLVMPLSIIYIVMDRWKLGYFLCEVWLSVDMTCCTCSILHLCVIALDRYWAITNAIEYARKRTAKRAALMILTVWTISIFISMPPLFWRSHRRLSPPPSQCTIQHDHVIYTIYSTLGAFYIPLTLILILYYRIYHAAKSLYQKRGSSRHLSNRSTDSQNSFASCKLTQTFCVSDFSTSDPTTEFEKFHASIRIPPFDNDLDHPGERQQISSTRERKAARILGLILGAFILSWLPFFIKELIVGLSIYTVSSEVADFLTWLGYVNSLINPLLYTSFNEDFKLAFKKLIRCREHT
T4 sequence (P14416 whole entry): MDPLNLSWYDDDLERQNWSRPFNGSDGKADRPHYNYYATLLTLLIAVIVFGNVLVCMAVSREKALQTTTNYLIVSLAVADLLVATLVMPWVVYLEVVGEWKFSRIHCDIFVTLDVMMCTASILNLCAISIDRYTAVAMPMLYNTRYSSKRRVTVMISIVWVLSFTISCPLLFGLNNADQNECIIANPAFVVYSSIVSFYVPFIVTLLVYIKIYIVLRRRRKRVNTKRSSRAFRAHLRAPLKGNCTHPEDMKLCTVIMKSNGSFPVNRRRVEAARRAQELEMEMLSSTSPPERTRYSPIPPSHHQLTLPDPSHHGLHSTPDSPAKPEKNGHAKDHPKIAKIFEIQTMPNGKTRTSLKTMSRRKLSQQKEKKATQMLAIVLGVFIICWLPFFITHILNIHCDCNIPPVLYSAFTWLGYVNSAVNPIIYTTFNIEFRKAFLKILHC
T1 sequence (P35372 whole entry): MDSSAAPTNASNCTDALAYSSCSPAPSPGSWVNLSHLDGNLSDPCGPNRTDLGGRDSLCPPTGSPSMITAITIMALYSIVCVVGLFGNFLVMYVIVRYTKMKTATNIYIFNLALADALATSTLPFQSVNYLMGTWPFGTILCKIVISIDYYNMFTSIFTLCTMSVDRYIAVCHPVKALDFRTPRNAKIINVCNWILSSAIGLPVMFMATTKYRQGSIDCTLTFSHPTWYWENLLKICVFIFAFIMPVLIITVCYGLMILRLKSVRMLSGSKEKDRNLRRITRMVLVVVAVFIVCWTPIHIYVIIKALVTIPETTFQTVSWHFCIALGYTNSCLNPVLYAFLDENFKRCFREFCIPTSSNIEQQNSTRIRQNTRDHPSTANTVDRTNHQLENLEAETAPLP
T5 sequence (Q01959 whole entry): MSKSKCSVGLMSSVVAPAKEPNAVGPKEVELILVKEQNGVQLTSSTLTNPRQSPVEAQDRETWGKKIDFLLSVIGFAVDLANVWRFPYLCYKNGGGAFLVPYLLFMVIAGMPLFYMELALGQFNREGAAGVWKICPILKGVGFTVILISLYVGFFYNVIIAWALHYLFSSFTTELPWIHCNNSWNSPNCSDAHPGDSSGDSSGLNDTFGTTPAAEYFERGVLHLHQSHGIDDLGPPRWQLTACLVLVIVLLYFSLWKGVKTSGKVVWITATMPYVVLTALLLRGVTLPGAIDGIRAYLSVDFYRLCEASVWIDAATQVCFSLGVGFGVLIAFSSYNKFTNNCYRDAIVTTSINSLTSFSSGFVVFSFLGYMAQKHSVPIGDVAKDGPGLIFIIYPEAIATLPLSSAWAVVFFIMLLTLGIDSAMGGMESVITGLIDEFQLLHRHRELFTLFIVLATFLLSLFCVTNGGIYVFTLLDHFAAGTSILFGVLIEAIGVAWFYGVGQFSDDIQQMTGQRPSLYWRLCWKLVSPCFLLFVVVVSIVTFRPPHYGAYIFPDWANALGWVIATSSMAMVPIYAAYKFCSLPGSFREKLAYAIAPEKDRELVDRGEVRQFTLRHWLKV
T7 sequence (P35367 whole entry): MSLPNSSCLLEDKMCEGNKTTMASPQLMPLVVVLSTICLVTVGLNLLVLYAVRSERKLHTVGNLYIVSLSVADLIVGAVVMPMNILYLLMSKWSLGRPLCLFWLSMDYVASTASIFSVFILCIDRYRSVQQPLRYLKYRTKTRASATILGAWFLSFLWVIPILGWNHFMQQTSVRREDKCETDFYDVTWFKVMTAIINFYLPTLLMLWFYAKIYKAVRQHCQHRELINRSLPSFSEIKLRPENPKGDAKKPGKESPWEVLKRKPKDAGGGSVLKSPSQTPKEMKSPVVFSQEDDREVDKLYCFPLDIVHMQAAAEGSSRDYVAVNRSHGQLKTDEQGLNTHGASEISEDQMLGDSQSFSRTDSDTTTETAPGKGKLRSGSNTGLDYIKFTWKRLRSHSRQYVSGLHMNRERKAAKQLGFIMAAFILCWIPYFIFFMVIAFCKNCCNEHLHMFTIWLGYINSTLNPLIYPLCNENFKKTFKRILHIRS

CCC(=O)N1CCC(NC(=O)Nc2ccc(OC(F)(F)F)cc2)CC1 [UNC10302681A, TPPU]
Mean % ([1]; mean inhibition): 7.56% | Inhibition 1 ([1]; replicate 1): 7.83% | Inhibition 2 ([1]; replicate 2): 3.61% | Inhibition 3 ([1]; replicate 3): 10.7% | Inhibition 4 ([1]; replicate 4): 8.11% | Mean % ([2]; mean inhibition): 3.57% | Inhibition 1 ([2]; replicate 1): 4.75% | Inhibition 2 ([2]; replicate 2): 5.92% | Inhibition 3 ([2]; replicate 3): 13.87% | Inhibition 4 ([2]; replicate 4): -10.26% | Mean % ([3]; mean inhibition): -4.36% | Inhibition 1 ([3]; replicate 1): 0.45% | Inhibition 2 ([3]; replicate 2): -10.14% | Inhibition 3 ([3]; replicate 3): -9.09% | Inhibition 4 ([3]; replicate 4): 1.34% | Mean % ([4]; mean inhibition): -2.08% | Inhibition 1 ([4]; replicate 1): 8.4% | Inhibition 2 ([4]; replicate 2): -12.22% | Inhibition 3 ([4]; replicate 3): -3.46% | Inhibition 4 ([4]; replicate 4): -1.03% | Mean % ([5]; mean inhibition): 59.91% | Inhibition 1 ([5]; replicate 1): 71.52% | Inhibition 2 ([5]; replicate 2): 71.2% | Inhibition 3 ([5]; replicate 3): 51.64% | Inhibition 4 ([5]; replicate 4): 45.27% | Mean % ([6]; Alpha1A): -2.01% | Inhibition 1 ([6]; Alpha1A): 4.58% | Inhibition 2 ([6]; Alpha1A): -5.33% | Inhibition 3 ([6]; Alpha1A): -5.52% | Inhibition 4 ([6]; Alpha1A): -1.78% | Mean % ([6]; Alpha2A): -5.2% | Inhibition 1 ([6]; Alpha2A): -1.74% | Inhibition 2 ([6]; Alpha2A): -8.16% | Inhibition 3 ([6]; Alpha2A): -13.09% | Inhibition 4 ([6]; Alpha2A): 2.19% | Mean % ([6]; Alpha2C): -0.34% | Inhibition 1 ([6]; Alpha2C): 3.18% | Inhibition 2 ([6]; Alpha2C): -3.57% | Inhibition 3 ([6]; Alpha2C): 7.34% | Inhibition 4 ([6]; Alpha2C): -8.31% | Mean % ([6]; BZP Rat Brain Site): 9.51% | Inhibition 1 ([6]; BZP Rat Brain Site): 23.2% | Inhibition 2 ([6]; BZP Rat Brain Site): 7.09% | Inhibition 3 ([6]; BZP Rat Brain Site): 1.4% | Inhibition 4 ([6]; BZP Rat Brain Site): 6.33% | Mean % ([6]; DOR): -1.52% | Inhibition 1 ([6]; DOR): 6.89% | Inhibition 2 ([6]; DOR): -4.86% | Inhibition 3 ([6]; DOR): -4.68% | Inhibition 4 ([6]; DOR): -3.41% | Mean % ([6]; GABAA): -2.31% and -7.5% | Inhibition 1 ([6]; GABAA): 16.54% and 5.88% | Inhibition 2 ([6]; GABAA): -7.12% and -3.31% | Inhibition 3 ([6]; GABAA): -2.68% and -32.5% | Inhibition 4 ([6]; GABAA): -15.99% and -0.07% | Mean % ([6]; H3): 21.21% | Inhibition 1 ([6]; H3): 28.2% | Inhibition 2 ([6]; H3): 25.87% | Inhibition 3 ([6]; H3): 12.17% | Inhibition 4 ([6]; H3): 18.58% | Mean % ([6]; H4): -7.02% | Inhibition 1 ([6]; H4): -3.06% | Inhibition 2 ([6]; H4): -20.34% | Inhibition 3 ([6]; H4): -7.38% | Inhibition 4 ([6]; H4): 2.7% | Mean % ([6]; Sigma 1): 19.57% | Mean % ([6]; Sigma 2): 21.21% | Mean % ([7]; mean inhibition): -2.23% | Inhibition 1 ([7]; replicate 1): 18.08% | Inhibition 2 ([7]; replicate 2): -1.14% | Inhibition 3 ([7]; replicate 3): -10.91% | Inhibition 4 ([7]; replicate 4): -14.93% | Mean % ([8]; mean inhibition): 74.57% | Inhibition 1 ([8]; replicate 1): 97.51% | Inhibition 2 ([8]; replicate 2): 87.07% | Inhibition 3 ([8]; replicate 3): 65.55% | Inhibition 4 ([8]; replicate 4): 48.14%
